Test results: patent US20090312521A1 (priority 2004, published 2009)
Converted amounts (≈) assume the structure as drawn. “Also recorded” adds a separate entry of the source. Non-standard residues stand in square brackets, D forms with d. Residues, ends and D or L forms follow the SMILES beside them. βAla = NCCC(=O)O

Legend:
Salmonella typhimurium = conditions: murium
[1] = test system: Salmonella typhimurium Rb; conditions: murium Rb
Vibrio cholerae = experiment: Additional antimicrobial test (MIC); type: cell-based; conditions: Gram −, BHI, 37 ° C.
Bacillus anthracis = type: cell-based; conditions: Gram +, BHI, 37 ° C.
[2] = test system: Salmonella typhimurium Rd1; conditions: Salmonella typhimurium Rd1, Gram −, NB, 37 ° C.
[3] = test system: Salmonella typhimurium Rc; conditions: Gram −, NB, 37 ° C.
[4] = test system: Salmonella typhimurium Re; conditions: Gram −, NB, 37 ° C.
[5] = test system: Methicillinresistant Staphylococcus aureus (MRSA); experiment: Additional antimicrobial test (MIC); type: cell-based; conditions: Gram +, NB, 37 ° C.
Bacillus globigii = experiment: Additional antimicrobial test (MIC); type: cell-based; conditions: Gram +, 37 ° C.
Yersinia pestis KIM5 = type: cell-based; conditions: Yersinia pestis KIM5, Gram −, BHI, 22 ° C.
[6] = test system: Yersinia pseudotuberculosis; type: cell-based; conditions: Gram −, BHI, 35 ° C.
Pseudomonas auruginosa = experiment: Additional antimicrobial test (MIC); type: cell-based
Bacillus thuringiensis = experiment: Additional antimicrobial test (MIC); type: cell-based; conditions: Gram +, BHI, 37 ° C.
E. coli ATCC 11775 = type: cell-based; conditions: ATCC 11775, 24 h
Experimental: Lyophilized peptides were dissolved in NB to give a concentration of 400 μM and filtered using 0.22 μm filter discs (Millex GV, Durapore). An overnight culture in NB was adjusted to 5×10^6 CFU/mL and inoculated into the micro titer plate wells (10 μL) containing each 100 μL of a serial 2-fold dilution (200-0.4 μM) of the tested peptide in NB. Plates were incubated while gently shaking at 37 ° C. for 24 h. Next, 80 μL suspension of each well was transported into a flat-bottom 96-well plate (Costar). The absorbance was measured at 600 nm using a μQuant micro plate spectrophotometer (Bio-Tek Instruments). All peptides were measured in quadruplo. The peptide with sequence […] (see Otvos Jr, […]; Otvos, B. I.; Hoffmann, […].; Wade, […].; Bulet, P. Protein Sci. 2000, 9, 742) was used as negative control.

mammalian serum = conditions: up to four hour period; cited from earlier work
[7] = test system: aminopeptidase and carboxypeptidase; experiment: mammalian serum; conditions: up to four hour; cited from earlier work
[8] = aminopeptidase and carboxypeptidase cleavage; cited from earlier work
Gram-negative bacteria = conditions: glycosylated form; cited from earlier work
[9] = cited from earlier work

Compound	MIC (Salmonella infantis)	MIC (Klebsiella pneumoniae)	MIC (Salmonella typhimurium)	MIC (Salmonella give)	MIC (Salmonella montevideo)	MIC (E. coli O157: H7)	MIC (Salmonella panama)	MIC (Salmonella enteritidis)	MIC [1]	MIC (Shigella sonnei)	MIC (Vibrio cholerae)	MIC (Bacillus anthracis)	MIC [2]	MIC [3]	MIC [4]	MIC [5]	MIC (Bacillus globigii)	MIC (Yersinia pestis KIM5)	MIC [6]	MIC (Pseudomonas auruginosa)	further results
CC[C@H](C)[C@H](NC(=O)[C@@H]1CCCN1C(=O)[C@H](CCCNC(=N)N)NC(=O)[C@@H]1CCCN1C(=O)[C@H](Cc1cnc[nH]1)NC(=O)[C@H](CO)NC(=O)[C@@H](NC(=O)[C@@H]1CCCN1C(=O)[C@H](CCCNC(=N)N)NC(=O)[C@@H]1CCCN1C(=O)[C@H](CO)NC(=O)[C@H](Cc1ccc(O)cc1)NC(=O)[C@@H]1CCCN1C(=O)[C@H](CCCNC(=N)N)NC(=O)[C@@H]1CCCN1C(=O)[C@H](CCCCN)NC(=O)CN)[C@@H](C)O)C(=O)N[C@@H](CCCNC(=N)N)C(=O)N[C@H](C(=O)O)C(C)C [Drosocin] (H-GKPRPYSPRPTSHPRPIRV-OH)	50 µM (≈ 110 µg/mL)	100 µM (≈ 220 µg/mL)	25 µM (≈ 55 µg/mL)	25 µM (≈ 55 µg/mL)	50 µM (≈ 110 µg/mL)	25 µM (≈ 55 µg/mL)	25 µM (≈ 55 µg/mL)	50 µM (≈ 110 µg/mL)	50 µM (≈ 110 µg/mL)	100 µM (≈ 220 µg/mL)											MIC (Erwinia chrysanthemi): 100 µM (≈ 220 µg/mL); MIC (Erwinia herbicola): 12.5 µM (≈ 27.5 µg/mL); MIC (Enterobacter aerogenes): 100 µM (≈ 220 µg/mL)
CC[C@H](C)[C@H](NC(=O)[C@@H]1CCCN1C(=O)[C@H](CCCNC(=N)N)NC(=O)[C@@H]1CCCN1C(=O)[C@H](Cc1c[nH]cn1)NC(=O)[C@H](CO)NC(=O)[C@@H](NC(=O)[C@@H]1CCCN1C(=O)[C@H](CCCNC(=N)N)NC(=O)[C@@H]1CCCN1C(=O)[C@@H](NC(=O)[C@H](Cc1ccc(O)cc1)NC(=O)[C@@H]1CCCN1C(=O)[C@H](CCCNC(=N)N)NC(=O)[C@@H]1CCCN1C(=O)[C@H](CCCCN)NC(=O)CN)[C@@H](C)O)[C@@H](C)O)C(=O)N[C@@H](CCCNC(=N)N)C(=O)N[C@H](C(=O)O)C(C)C [Peptide 4, GKPRP YTPRP TSHPR PIRV] (H-GKPRPYTPRPTSHPRPIRV-OH; N-terminus assumed)	25 µM (≈ 55.3 µg/mL)	100 µM (≈ 221 µg/mL)	12.5 µM (≈ 27.7 µg/mL)	25 µM (≈ 55.3 µg/mL)	12.5 µM (≈ 27.7 µg/mL)	12.5 µM (≈ 27.7 µg/mL)	12.5 µM (≈ 27.7 µg/mL)	12.5 µM (≈ 27.7 µg/mL)	12.5 µM (≈ 27.7 µg/mL)	100 µM (≈ 221 µg/mL)	NI at ≦100 μM	NI at ≦100 μM	12.5 µM (≈ 27.7 µg/mL)	100 µM (≈ 221 µg/mL)	3.38 µM (≈ 7.48 µg/mL)	NI at ≦100 μM	NI at ≦100 μM	NI at ≦100 μM	NI at ≦100 μM	NI at ≦100 μM	MIC (Bacillus thuringiensis): NI at ≦100 μM; MIC (E. coli ATCC 11775): 1.6 µM (≈ 3.54 µg/mL)
CC[C@H](C)[C@H](NC(=O)[C@@H]1CCCN1C(=O)[C@H](CCCNC(=N)N)NC(=O)[C@@H]1CCCN1C(=O)[C@H](Cc1c[nH]cn1)NC(=O)[C@H](CO)NC(=O)[C@@H](NC(=O)[C@@H]1CCCN1C(=O)[C@H](CCCNC(=N)N)NC(=O)[C@@H]1CCCN1C(=O)[C@@H](NC(=O)[C@H](Cc1ccc(O)cc1)NC(=O)[C@@H]1CCCN1C(=O)[C@H](CCCNC(=N)N)NC(=O)[C@@H]1CCCN1C(=O)[C@H](CCCCN)NC(=O)CCN)[C@@H](C)O)[C@@H](C)O)C(=O)N[C@@H](CCCNC(=N)N)C(=O)N[C@H](C(=O)O)C(C)C [Peptide 14, βAlaKPRP YTPRP TSHPR PIRV] (H-[βAla]KPRPYTPRPTSHPRPIRV-OH; N-terminus assumed)	25 µM (≈ 55.7 µg/mL)	100 µM (≈ 223 µg/mL)	50 µM (≈ 111 µg/mL)	100 µM (≈ 223 µg/mL)	12.5 µM (≈ 27.8 µg/mL)	25 µM (≈ 55.7 µg/mL)	25 µM (≈ 55.7 µg/mL)	12.5 µM (≈ 27.8 µg/mL)	12.5 µM (≈ 27.8 µg/mL)	100 µM (≈ 223 µg/mL)	NI at ≦100 μM	NI at ≦100 μM	12.5 µM (≈ 27.8 µg/mL)	100 µM (≈ 223 µg/mL)	3.38 µM (≈ 7.53 µg/mL)	NI at ≦100 μM	NI at ≦100 μM	NI at ≦100 μM	NI at ≦100 μM	NI at ≦100 μM	MIC (Bacillus thuringiensis): NI at ≦100 μM; MIC (E. coli ATCC 11775): 3.1 µM (≈ 6.9 µg/mL)
Gly-Lys-Pro-Arg-Pro-Tyr-Ser*-Pro-Arg-Pro-Thr-Ser-His-Pro-Arg-Pro-Ile-Arg-Val																					fragment found (mammalian serum): metabolite lacking five amino terminal residues; also recorded: metabolite lacking two carboxy terminal residues; fragment found [7]: metabolites lacking five amino terminal residues; also recorded: metabolites lacking two carboxy terminal residues
Gly-Lys-Pro-Arg-Pro-Tyr-Ser*-Pro-Arg-Pro-Thr-Ser-His-Pro-Arg-Pro-Ile-Arg-Val [native, glycosylated peptide]																					degradation in mammalian serum [8]: completely degraded within a four hour period; activity against Gram-negative bacteria (Gram-negative bacteria): moderately active; time needed to kill bacteria in vivo (Gram-negative bacteria): 24 h; antibacterial activity when injected into mice [9]: no antibacterial activity
